Test results as given in PMC4195943, “A novel small-molecule MRCK inhibitor blocks cancer cell invasion” (Cell Communication and Signaling : CCS, 2014).

Columns and labels:
PRK2 = molecular target: T1, PRK2 (Homo sapiens, UniProt Q16513); test: Kinase selectivity profiling (Eurofins), PRK2; type: biochemical
T1 construct: purchased Eurofins
From the text: The results of this screening were mapped over the annotated human kinome phylogenetic tree using Kinome Render (Figure 2).
Kinases inhibited less than 25% have their names in green text. Kinases inhibited >25% and ≤50% have yellow circles, >50% and ≤75% have orange circles, and >75% have red circles. In each case, the size of the circle is proportional to the percentage inhibition. ROCK1 and MRCKα positions are indicated on the tree for orientation purposes. Illustration reproduced courtesy of Cell Signaling Technology, Inc. (www.cellsignal.com).
MRCKα, MRCKβ, ROCK1 and ROCK2 assays were performed using an IMAP fluorescence polarization assay format (Molecular Devices Inc.). 8–12 nM of each kinase (Life Technologies) was incubated for 60 min at room temperature with 100 nM FAM-S6-ribosomal protein derived peptide (synthesized by Alta Biosciences, University of Birmingham UK) in the presence of 1 μM ATP and 0.5 mM MgCl2 in 20 mM Tris buffer (pH 7.4) containing 0.01% Tween-20 and 1 mM DTT (MRCKα and β); or 1 μM ATP, 10 mM MgCl2 in 20 mM Tris buffer (pH 7.5) containing 0.25 mM EGTA 0.01% Triton X-100 and 1 mM DTT (ROCK1 and ROCK2). […] After 30 min incubation to allow binding reagent to bind phosphorylated peptide, fluorescence polarization was measured on a Tecan Saphire^2 plate reader at excitation (470 nm) and emission (530 nm) wavelengths. […]

ROCK1 = ROCK1 (Homo sapiens, UniProt Q13464); test: MLC phosphorylation in MDA-MB-231 cells expressing doxycycline-induced ROCK1 kinase domain (quantitative western blot); parameters: The kinase domains of MRCKβ (1–473), ROCK1 (1–535) or ROCK2 (1–532) were gene synthesized; expressed in transfected cells; host or cells: MDA-MB-231 D3H2LN-Luc Tet3G cells, pTRE3G-ROCK1 (1–535); settings: doxycycline-induced MDA-MB-231, 60 minutes treatment; read-out: cell based EC50, MLC phosphorylation induced by ROCK1
Chain of ROCK1 (Q13464 1-535): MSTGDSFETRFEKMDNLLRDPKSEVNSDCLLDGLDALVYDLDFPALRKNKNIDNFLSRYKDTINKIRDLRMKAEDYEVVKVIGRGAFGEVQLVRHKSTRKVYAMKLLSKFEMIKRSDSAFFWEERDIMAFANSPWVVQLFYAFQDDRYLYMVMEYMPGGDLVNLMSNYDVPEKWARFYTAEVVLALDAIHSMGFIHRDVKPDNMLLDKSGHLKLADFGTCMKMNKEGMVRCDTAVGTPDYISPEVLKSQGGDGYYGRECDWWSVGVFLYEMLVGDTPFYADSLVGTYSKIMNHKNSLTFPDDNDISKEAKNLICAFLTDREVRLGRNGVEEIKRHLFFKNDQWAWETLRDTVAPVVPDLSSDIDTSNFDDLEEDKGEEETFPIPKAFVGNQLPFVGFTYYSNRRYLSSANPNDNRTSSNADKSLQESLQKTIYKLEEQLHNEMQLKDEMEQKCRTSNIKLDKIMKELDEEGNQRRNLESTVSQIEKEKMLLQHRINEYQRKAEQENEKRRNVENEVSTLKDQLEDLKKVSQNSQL
Experimental: (A) MDA-MB-231 breast cancer cells expressing doxycycline inducible ROCK1, ROCK2 or MRCKβ kinase domains were established as indicated. Following treatment with doxycycline for 18 hours to induce expression, cell lysates were western blotted with antibodies as indicated. […] All results are shown as mean ± standard error of n = 4 independent replicates.
MDA-MB-231 D3H2LN-Luc cells (Caliper LifeScience) were grown in MEM/EBSS (Hyclone) supplemented with 10% fetal bovine serum (FBS) (Gibco), 1 mM Sodium Pyruvate (Sigma) 2 mM L-glutamine (Gibco), 1× MEM non-essential amino acids (Gibco) plus penicillin-streptomycin (10 Units/ml and 10 μg/ml respectively) at 37°C in 5% CO2 in a humidified incubator. MDA-MB-231 D3H2LN-Luc TetOn MRCKβ, ROCK1 and ROCK2 selective cell lines were grown in the same media with 10% FBS replaced with 10% Tet System Approved FBS (Clontech).
The kinase domains of MRCKβ (1–473), ROCK1 (1–535) or ROCK2 (1–532) were gene synthesized (Genscript) and subcloned into pTRE3G (Clontech). MDA-MB-231 D3H2LN-Luc Tet3G cells were co-transfected with pTRE3G-MRCKβ (1–473), pTRE3G-ROCK1 (1–535) or pTRE3G-ROCK2 (1–532), together with a linear Pur^r-selection marker using Xfect transfection reagent according to manufacturer’s instructions. […] Each clone was treated with or without doxycycline (1 μg/ml) for 24 hours and kinase domain expression and activity determined by western blotting. […]

T1 sequence (Q16513 whole entry): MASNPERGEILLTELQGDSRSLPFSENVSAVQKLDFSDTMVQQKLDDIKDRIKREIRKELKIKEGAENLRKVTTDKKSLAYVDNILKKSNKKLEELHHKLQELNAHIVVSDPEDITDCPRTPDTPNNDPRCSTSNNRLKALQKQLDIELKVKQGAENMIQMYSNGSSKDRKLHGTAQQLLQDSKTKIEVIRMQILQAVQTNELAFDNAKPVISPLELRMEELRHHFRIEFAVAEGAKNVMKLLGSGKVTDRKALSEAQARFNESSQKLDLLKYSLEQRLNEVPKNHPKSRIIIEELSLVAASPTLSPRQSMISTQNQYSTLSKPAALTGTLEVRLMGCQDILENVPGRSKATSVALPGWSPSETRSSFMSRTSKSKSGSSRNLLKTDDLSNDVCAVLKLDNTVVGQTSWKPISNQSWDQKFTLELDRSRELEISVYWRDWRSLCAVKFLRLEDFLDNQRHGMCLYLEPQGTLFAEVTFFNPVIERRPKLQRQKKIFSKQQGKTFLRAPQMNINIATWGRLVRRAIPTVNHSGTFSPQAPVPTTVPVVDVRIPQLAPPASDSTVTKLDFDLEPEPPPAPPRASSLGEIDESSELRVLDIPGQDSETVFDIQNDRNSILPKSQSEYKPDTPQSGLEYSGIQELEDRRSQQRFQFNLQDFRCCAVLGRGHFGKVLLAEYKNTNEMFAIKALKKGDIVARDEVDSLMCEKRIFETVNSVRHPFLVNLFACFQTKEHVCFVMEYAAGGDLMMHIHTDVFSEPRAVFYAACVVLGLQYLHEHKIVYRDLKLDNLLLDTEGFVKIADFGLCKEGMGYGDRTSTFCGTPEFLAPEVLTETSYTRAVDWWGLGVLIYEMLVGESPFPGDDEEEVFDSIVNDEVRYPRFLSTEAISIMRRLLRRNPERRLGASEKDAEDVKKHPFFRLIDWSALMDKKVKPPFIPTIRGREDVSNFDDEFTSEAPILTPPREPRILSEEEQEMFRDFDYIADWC

O=C(Nc1cn[nH]c1-c1ccccn1)c1nn(C2CCNCC2)cc1Cl [BDP5290, 4-chloro-1-(4-piperidyl)-N-[5-(2-pyridyl)-1H-pyrazol-4-yl]pyrazole-3-carboxamide]
inhibition at 10 µM (PRK2): > 75% | EC50 (ROCK1): 501 nM
